Experimental data reported in patent US6849598B1, “Therapeutic compositions comprising bactericidal/permeability-increasing (BPI) protein products” (XOMA, priority 1995, dated 2005).
In brackets after ≈: the same amount, converted by molar mass. Like-named read-outs stand apart in the source and are kept apart here.

B1: rBPI21: expression product of DNA encoding amino acid 1 to approximately 193 or 199 of BPI holoprotein, cysteine 132 substituted with alanine (protein, UniProt P17213 32-224, looked up, variant C132A)
chain: VNPGVVVRISQKGLDYASQQGTAALQKELKRIKIPDYSDSFKIKHLGKGHYSFYSMDIREFQLPSSQISMVPNVGLKFSISNANIKISGKWKAQKRFLKMSGNFDLSIEGMSISADLKLGSNPTSGKPTITASSCSSHINSVHVHISKSKVGWLIQLFHKKIESALRNKMNSQVCEKVTNSVSSELQPYFQTL

How the values were obtained:
Assay type in all cases: cell-based
P. aeruginosa = experiment: Antibiotic susceptibility (MIC, Sensititre Trays) with rBPI21 poloxamer formulations; conditions: for MIC: Pseudomonas aeruginosa, read-out: Minimum Inhibitory Concentration
A. baumannii = experiment: Bactericidal activity in water, TSB, CSMHB or serum, CFU after 24 hours (Example 5)
Method: (§1) The bactericidal activity of therapeutic compositions comprising BPI protein product and PLURONIC F68, P103, P104, P105 or P123 were evaluated against the S. aureus and A. baumannii organisms of Example 1, the S. pneumoniae organism of Example 3, an E. faecium organism (Microscan® ID No. 16866), and a strain of P. aeruginosa from the American Type Culture Collection (ATCC No. 19660). Therapeutic compositions were formulated by adding the appropriate amount of poloxamer to a stock solution of 2.2 mg/mL rBPI21 (5 mM sodium citrate, 150 mM NaCl, without poloxamer), to achieve the desired 0.2% (w/v) poloxamer concentration, followed by sterile filtration. Formulated product was stored at 2-8° C. for up to 6 months. Sterile stock solutions of poloxamer were made by dissolving the poloxamer paste in water for injection (WFI, Kendall-McGaw) with mixing to a 1-5% concentration (w/v) at room temperature, followed by sterile filtration. Assays were conducted in 96-well microtiter plates using WFI, tryptic soy broth (TSB, Remel, Lenexa, Kans.), Mueller-Hinton Broth plus Cations (CSMHB, Remel), or 40% pooled human serum in CSMHB (Sigma, St. Louis, Mo.) as growth media, according to the general procedure described above in Examples 2 and 3.

[1] = system: E. faecium (Microscan® ID No. 16866); experiment: as above
Method: as §1

S. aureus = experiment: as above
Method: as §1

S. pneumoniae = experiment: as above; conditions: Control 3 × 10^5
Method: as §1

[2] = CSMHB, 16 μg/mL rBPI21 with F68
[3] = CSMHB, 16 μg/mL rBPI21 with P103
[4] = CSMHB, 16 μg/mL rBPI21 with P104
[5] = CSMHB, 16 μg/mL rBPI21 with P105
[6] = CSMHB, 16 μg/mL rBPI21 with P123
[7] = Serum, 16 μg/mL rBPI21 with F68
[8] = Serum, 16 μg/mL rBPI21 with P103
[9] = Serum, 16 μg/mL rBPI21 with P104
[10] = Serum, 16 μg/mL rBPI21 with P105
[11] = Serum, 16 μg/mL rBPI21 with P123

Molecule | susceptibility interpretation of MIC (superscript) (P. aeruginosa; [2]) | susceptibility interpretation of MIC (superscript) (P. aeruginosa; [3]) | susceptibility interpretation of MIC (superscript) (P. aeruginosa; [4]) | susceptibility interpretation of MIC (superscript) (P. aeruginosa; [5]) | susceptibility interpretation of MIC (superscript) (P. aeruginosa; [6]) | susceptibility interpretation of MIC (superscript) (P. aeruginosa; CSMHB, Control (no BPI)) | MIC (P. aeruginosa; [2]) [µg/mL] | MIC (P. aeruginosa; [3]) [µg/mL] | MIC (P. aeruginosa; [4]) [µg/mL] | MIC (P. aeruginosa; [5]) [µg/mL] | MIC (P. aeruginosa; [6]) [µg/mL] | MIC (P. aeruginosa; CSMHB, Control (no BPI)) [µg/mL] | MIC (P. aeruginosa; [7]) [µg/mL] | MIC (P. aeruginosa; [8]) [µg/mL] | MIC (P. aeruginosa; [9]) [µg/mL] | MIC (P. aeruginosa; [10]) [µg/mL] | MIC (P. aeruginosa; [11]) [µg/mL] | MIC (P. aeruginosa; Serum, Control (no BPI)) [µg/mL] | susceptibility interpretation of MIC (superscript) (P. aeruginosa; [7]) | susceptibility interpretation of MIC (superscript) (P. aeruginosa; [8]) | further results
CO/N=C(\C(=O)N[C@@H]1C(=O)N2C(C(=O)O)=C(CSc3nc(=O)c(=O)[nH]n3C)CS[C@H]12)c1csc(N)n1 [Ceftriaxone] | I | S | R | I | R | R | 32 (≈ 57.7 µM) | 8 (≈ 14.4 µM) | 128 (≈ 231 µM) | 32 (≈ 57.7 µM) | 128 (≈ 231 µM) | > 128 | > 128 | 16 (≈ 28.9 µM) | 128 (≈ 231 µM) | 16 (≈ 28.9 µM) | 32 (≈ 57.7 µM) | 128 (≈ 231 µM) | R | I | susceptibility interpretation of MIC (superscript) (P. aeruginosa; [9]): R; susceptibility interpretation of MIC (superscript) (P. aeruginosa; [10]): I; susceptibility interpretation of MIC (superscript) (P. aeruginosa; [11]): I; susceptibility interpretation of MIC (superscript) (P. aeruginosa; Serum, Control (no BPI)): R
CO/N=C(\C(=O)N[C@@H]1C(=O)N2C(C(=O)O)=CCS[C@H]12)c1csc(N)n1 [Ceftizoxime] | I | I | R | I | R | R | 32 (≈ 83.5 µM) | 16 (≈ 41.7 µM) | 128 (≈ 334 µM) | 32 (≈ 83.5 µM) | 128 (≈ 334 µM) | > 128 | > 128 | 16 (≈ 41.7 µM) | 128 (≈ 334 µM) | 16 (≈ 41.7 µM) | 16 (≈ 41.7 µM) | 128 (≈ 334 µM) | R | I | susceptibility interpretation of MIC (superscript) (P. aeruginosa; [9]): R; susceptibility interpretation of MIC (superscript) (P. aeruginosa; [10]): I; susceptibility interpretation of MIC (superscript) (P. aeruginosa; [11]): I; susceptibility interpretation of MIC (superscript) (P. aeruginosa; Serum, Control (no BPI)): R
O=C(N[C@H](CO)[C@H](O)c1ccc([N+](=O)[O-])cc1)C(Cl)Cl [Chloramphenicol] | R | I | R | I | I | R | > 32 | 16 (≈ 49.5 µM) | > 32 | 16 (≈ 49.5 µM) | 16 (≈ 49.5 µM) | > 32 | > 32 | 16 (≈ 49.5 µM) | 16 (≈ 49.5 µM) | 16 (≈ 49.5 µM) | 16 (≈ 49.5 µM) | > 32 | R | I | susceptibility interpretation of MIC (superscript) (P. aeruginosa; [9]): I; susceptibility interpretation of MIC (superscript) (P. aeruginosa; [10]): I; susceptibility interpretation of MIC (superscript) (P. aeruginosa; [11]): I; susceptibility interpretation of MIC (superscript) (P. aeruginosa; Serum, Control (no BPI)): R
B1 |  |  |  |  |  |  |  |  |  |  |  |  |  |  |  |  |  |  |  |  | colony forming units after 24 hours of incubation (A. baumannii; Serum (40% pooled human serum in CSMHB), Control 2 × 10^5): 2 × 10^5; colony forming units after 24 hours of incubation (A. baumannii; TSB, Control 3 × 10^6): 6 × 10^2; colony forming units after 24 hours of incubation (A. baumannii; Water, Control 2 × 10^6): <100; colony forming units after 24 hours of incubation ([1]; TSB, Control 5 × 10^5): 5 × 10^5; colony forming units after 24 hours of incubation ([1]; Water, Control 4 × 10^5): 100; colony forming units after 24 hours of incubation (S. aureus; Serum (40% pooled human serum in CSMHB), Control 4.2 × 10^5): >1 × 10^5; colony forming units after 24 hours of incubation (S. aureus; TSB, Control 5.4 × 10^5): 5.7 × 10^5; colony forming units after 24 hours of incubation (S. aureus; Water, Control 8.2 × 10^5): 3.2 × 10^4; colony forming units after 24 hours of incubation (S. pneumoniae): 5 × 10^4
